HELM strings list units from the 5' end as sugar, base in round brackets, then linkage (d deoxyribose, r ribose, m 2'-O-methyl, p phosphodiester). Strings are as the collection lists them; they lack the last nucleoside at the 3' end of the tested compound. [moe] = 2'-O-(2-methoxyethyl) (MOE); [sp] = phosphorothioate linkage; [m5C] = 5-methylcytosine
biological target: GFAP; assay: mouse, dose not given; conditions: ASO

Substance	3 h FOB score [score 0-7]
RNA1{[moe]([m5C])[sp].[moe](T)p.[moe]([m5C])p.[moe](T)p.[moe](G)p.d([m5C])[sp].d([m5C])[sp].d(A)[sp].d(T)[sp].d(T)[sp].d(T)[sp].d(A)[sp].d(T)[sp].d([m5C])[sp].d(T)[sp].[moe](G)p.[moe](T)p.[moe](G)[sp].[moe]([m5C])}$$$$ (last 3' nucleoside missing)	0
RNA1{[moe](G)[sp].[moe](G)p.[moe](G)p.[moe](T)p.[moe](G)[sp].d(A)[sp].d(G)[sp].d(T)[sp].d(T)[sp].d(T)[sp].d([m5C])[sp].d(T)[sp].d(T)[sp].d(G)[sp].d(T)[sp].[moe](T)p.[moe](A)p.[moe](G)[sp].[moe](T)}$$$$ (last 3' nucleoside missing)	6
RNA1{[moe](G)[sp].[moe]([m5C])p.[moe](G)p.[moe](A)p.[moe](T)[sp].d(G)[sp].d(G)[sp].d(A)[sp].d(G)[sp].d([m5C])[sp].d([m5C])[sp].d(T)[sp].d([m5C])[sp].d(A)[sp].d(G)[sp].[moe](G)p.[moe](G)p.[moe](A)[sp].[moe](T)}$$$$ (last 3' nucleoside missing)	7
RNA1{[moe]([m5C])[sp].[moe](G)p.[moe](T)p.[moe](A)p.[moe](T)[sp].d(T)[sp].d(G)[sp].d(T)[sp].d(G)[sp].d(A)[sp].d(G)[sp].d(G)[sp].d([m5C])[sp].d(T)[sp].d(T)[sp].[moe](T)p.[moe](T)p.[moe](G)[sp].[moe](A)}$$$$ (last 3' nucleoside missing)	7
RNA1{[moe]([m5C])[sp].[moe](G)p.[moe]([m5C])p.[moe](A)p.[moe](G)[sp].d([m5C])[sp].d(A)[sp].d(T)[sp].d(T)[sp].d(T)[sp].d(G)[sp].d(T)[sp].d([m5C])[sp].d(T)[sp].d(T)[sp].[moe](T)p.[moe](A)p.[moe](T)[sp].[moe](T)}$$$$ (last 3' nucleoside missing)	5
RNA1{[moe](T)[sp].[moe](T)p.[moe](G)p.[moe](G)p.[moe]([m5C])[sp].d(A)[sp].d(G)[sp].d(T)[sp].d(A)[sp].d(T)[sp].d(T)[sp].d(A)[sp].d([m5C])[sp].d([m5C])[sp].d(T)[sp].[moe]([m5C])p.[moe](T)p.[moe](A)[sp].[moe]([m5C])}$$$$ (last 3' nucleoside missing)	2
RNA1{[moe](G)[sp].[moe](A)p.[moe](G)p.[moe](T)p.[moe]([m5C])[sp].d(T)[sp].d([m5C])[sp].d(A)[sp].d(G)[sp].d(T)[sp].d(T)[sp].d(T)[sp].d(T)[sp].d([m5C])[sp].d([m5C])[sp].[moe](T)p.[moe]([m5C])p.[moe]([m5C])[sp].[moe](A)}$$$$ (last 3' nucleoside missing)	4
RNA1{[moe](T)[sp].[moe]([m5C])p.[moe](T)p.[moe](T)p.d(T)[sp].d(A)[sp].d(T)[sp].d(T)[sp].d(T)[sp].d(T)[sp].d(T)[sp].d([m5C])[sp].d([m5C])[sp].d(T)[sp].[moe]([m5C])p.[moe](A)p.[moe](G)p.[moe]([m5C])[sp].[moe](G)}$$$$ (last 3' nucleoside missing)	1
RNA1{[moe](G)[sp].[moe](G)p.[moe]([m5C])p.[moe](A)p.[moe](G)p.d(T)[sp].d(A)[sp].d(T)[sp].d(T)[sp].d(A)[sp].d([m5C])[sp].d([m5C])[sp].d(T)[sp].d([m5C])[sp].d(T)[sp].[moe](A)p.[moe]([m5C])p.[moe](T)[sp].[moe](A)}$$$$ (last 3' nucleoside missing)	3
RNA1{[moe](G)[sp].[moe]([m5C])p.[moe](A)p.[moe]([m5C])p.[moe](A)[sp].d(G)[sp].d(T)[sp].d(T)[sp].d([m5C])[sp].d([m5C])[sp].d([m5C])[sp].d(A)[sp].d(G)[sp].d(A)[sp].d(T)[sp].[moe](A)p.[moe]([m5C])p.[moe](T)[sp].[moe]([m5C])}$$$$ (last 3' nucleoside missing)	0
